From publication PMC11079064, “Discovery of a brain penetrant small molecule antagonist targeting LPA1 receptors to reduce neuroinflammation and promote remyelination in multiple sclerosis” (Scientific Reports, 2024) come the findings set out here.

“Also recorded” adds a separate entry of the source.

One experiment deals with T1, LPA1 (Mus musculus, UniProt P61793).
T1 construct: from tissue; host or cells: mouse brain (homogenate; forebrain of dosed C57BL6/N mice in the in vivo studies)
In words: In vivo brain binding of [3H]-OPC3497 radioligand. The settings on record: PIPE-791 dosed orally 2 h prior; 5 and 30 minutes after radioligand. The procedure:
Supplemental Figure 3. OPC3497 is a suitable radioligand for evaluating LPA1 receptor occupancy. Following IV administration, [^3H]-OPC3497 binding in mouse brain increased rapidly, peaked 5 minutes post-dose and declined sharply over the evaluation period (2 h).

The test system of a further experiment is rat OPCs. In words: OPC differentiation assay (PDGF withdrawal, MBP+ oligodendrocytes). The experiment is classed as cell-based. The settings on record: PDGF removed, 3 days treatment, percent of T3 induced differentiation; read-out: EC50 of increase in differentiated MBP+ oligodendrocytes. The procedure: Given the expression of Lpar1 on OPCs, we wanted to know how direct, exogenous application of LPA would affect OPC differentiation. Using the same PDGF withdrawal paradigm to induce OPC differentiation, we added various concentrations of LPA to the culture media and quantified MBP^+ oligodendrocytes 3 days later.
Primary rat OPCs were isolated and cultured in the presence of PDGF. One day later, PDGF was removed and various doses of PIPE-791 were added to the cultures. These cultures were fixed 3 days post-PIPE-791 treatment and immunostained for MBP.
OPC isolation: For immunopanning purification of OPCs, cortical hemispheres were dissected from postnatal day 8 Sprague–Dawley rat pups. Tissue culture dishes were incubated overnight with goat IgG secondary antibodies to mouse (Jackson Laboratories, Bar Harbor, ME). Dishes were rinsed and incubated at room temperature with primary antibodies for Ran-2, GalC and O4 (gift from Jonah Chan lab). Rodent cortical hemispheres were minced and dissociated with papain (Thermo Fisher, Waltham, MA) for 1 h at 37°. After dissociation, cells were resuspended in a panning buffer (0.2% BSA in DPBS) and incubated at room temperature sequentially on three immunopanning dishes: Ran-2 and GalC were used for negative selection before positive selection with O4. […]

Experiment [1] has as its system CC1+/OLIG2+ oligodendrocytes. In words: In vivo CC1 induction assay. Further details: species or system mouse. The conditions noted are these: single 3 mg/kg dose, brains collected 5 days later. The source says: Sections were immunostained for the mature oligodendrocyte marker, CC1, and the oligodendroglial marker, OLIG2 to represent the total OPC/oligodendrocyte population.
Female C57Bl/6 mice (9–11 weeks old) were used in this experiment, n = 5/group. […] On day 5, mice were sacrificed and brains submerged in formalin. Tissue was sectioned at 40 µm on a sliding microtome (ThermoFisher, Microm HM450, Waltham, MA). Four sections per mouse were immunostained. Sections were permeabilized and blocked by incubation with 20% goat serum (Millipore Sigma, St. Louis, MO) and 0.2% Triton X-100 (Millipore Sigma, St. Louis, MO) in PBS. Oligodendrocytes were detected with a rat monoclonal antibody to Anti-APC (1:500, Calbiochem, San Diego, CA), and the total pool OPC/oligodendrocyte pool were detected with a rabbit monoclonal antibody to Olig-2 (1:500, Invitrogen, Carlsbad, CA). Alexa Fluor 594 and 647 IgG secondary antibodies against rat and rabbit (1:1000, Invitrogen, Carlsbad, CA) were used for primary antibody detection. Cell nuclei were identified with Hoechst (1:1000, Invitrogen, Carlsbad, CA). […] Detection and quantification of the cells were performed using NIS Elements imaging software (Nikon, Minato, Tokyo).
Supplemental Figure 5. […] Sections were immunostained using antibodies against CC1 (mature oligodendrocytes), Olig2 (oligodendroglial marker), and counterstained with Hoechst. […]

In another experiment the test system is MOG-EAE mouse model. In words: MOG-EAE mouse model, IBA1 immunostaining of spinal cord. It counts as in vivo. The settings on record: 3 mg/kg. The procedure:
A lower lumbar segment of spinal cord was transferred from the EM fixative to 30% sucrose overnight and then sectioned using a sliding microtome. The resulting sections were stored in 30% sucrose in 0.1 M Phosphate Buffer pH 7.4 and stored at 4 °C. Free-floating spinal cord sections were rinsed with PBS, blocked with 5% normal goat serum in 0.1% Triton-X/PBS for 2 h, and subsequently incubated with antibodies against IBA1 (Life Technologies, Carlsbad, CA, 1:500) or CD3 (Abcam, Waltham, MA, 1:500) overnight at 4 °C. Sections were then washed 3 times with 0.1% triton-X/PBS and transferred to secondary antibody (1:500, Carlsbad, CA) in 0.1% Triton-X/PBS for 2 h at room temperature. Hoechst 33342 was diluted 1:2000 and added during the final wash step. Sections were stained with 1% Sudan Black in 70% ethanol, and washed 3 × 5 min in PBS. Stained sections were mounted onto slides and evaluated using a Nikon A1R confocal microscope and analyzed using Nikon NIS Elements software. Regions of interest (ROIs) were selected based on the largest contiguous lesion defined by Hoechst and Sudan Black co-staining. […] Cells were counted using the automatic General Analysis function in NIS Elements.
Supplemental Figure 9. […] Left, IBA1^+ area was quantified and normalized to Hoechst counts (* p = 0.0166, *** p=0.0002, mean ± SEM, ANOVA with Tukey’s, n>4). […]

T1 sequence (P61793 whole entry): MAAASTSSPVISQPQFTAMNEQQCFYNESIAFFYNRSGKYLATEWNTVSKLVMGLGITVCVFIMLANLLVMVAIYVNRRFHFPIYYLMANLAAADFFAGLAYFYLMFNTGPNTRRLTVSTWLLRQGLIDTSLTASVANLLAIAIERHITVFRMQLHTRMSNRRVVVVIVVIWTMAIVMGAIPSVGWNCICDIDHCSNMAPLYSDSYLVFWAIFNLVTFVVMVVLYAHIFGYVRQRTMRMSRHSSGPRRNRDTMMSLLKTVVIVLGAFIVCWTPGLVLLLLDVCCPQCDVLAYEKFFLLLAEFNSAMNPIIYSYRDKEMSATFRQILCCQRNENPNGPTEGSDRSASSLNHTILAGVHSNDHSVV

In the case of `COc1ccc(NC(=O)N(c2ccccc2C(C)C)C2CCC(C(=O)O)CC2)c(OC(F)F)n1` (stereo not shown) [PIPE-791], the “effect on total [3H]-OPC3497 binding in brain” value at LPA1 is recorded as “significantly reduced”. Also, the EC50 with rat OPCs came out at 0.108 µM. Also, the “increase in CC1+/OLIG2+ oligodendrocytes” value in experiment [1] was found to be 163%. In addition, the “level of IBA1+ staining in spinal cord” value in the experiment with MOG-EAE mouse model is “reduces IBA1^+ area; also recorded: significantly reduced”.

In general, EC50 refers to the concentration giving half of the maximal effect.
